Read-outs that look alike come from different tables or passages of the source.
Assays:
[1] = biological target: T1, human GIP receptor (hGIPR) (Homo sapiens, UniProt P48546); test: [125I]-GIP binding, SPA with membranes of CHO cells expressing hGIPR; settings: human GIPR; geometric mean (SEM, n); read-out: Binding Affinity Ki, nM (SEM, n) hGIPR
T1 construct: expressed in transfected cells; crude membranes
T1 sequence (P48546 22-466): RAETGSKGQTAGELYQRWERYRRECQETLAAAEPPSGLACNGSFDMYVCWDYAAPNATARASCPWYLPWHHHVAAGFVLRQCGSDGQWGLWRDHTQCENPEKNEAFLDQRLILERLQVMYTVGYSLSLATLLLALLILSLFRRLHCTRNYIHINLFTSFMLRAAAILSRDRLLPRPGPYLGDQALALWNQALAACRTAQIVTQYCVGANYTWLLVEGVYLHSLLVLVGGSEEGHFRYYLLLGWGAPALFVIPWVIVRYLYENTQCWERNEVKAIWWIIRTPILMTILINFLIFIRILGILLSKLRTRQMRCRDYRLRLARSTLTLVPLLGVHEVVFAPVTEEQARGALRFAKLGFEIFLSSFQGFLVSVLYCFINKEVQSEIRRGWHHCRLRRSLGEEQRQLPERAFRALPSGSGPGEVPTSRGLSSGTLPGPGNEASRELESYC

hGLP-1R = hGLP-1R (Homo sapiens, UniProt P43220); test: Functional cAMP formation (HTRF) in HEK-293 clonal cells expressing hGLP-1R, 0.1% bovine casein, without or with 1.0% human serum albumin; format: cell-based; parameters: expressed in transfected cells; settings: 37° C.; for EC50: cAMP, 0.1% bovine casein (no human serum albumin), geometric mean, read-out: hGLP-1R EC50, nM (SEM, n)
hGLP-1R, sequence (P43220 24-463): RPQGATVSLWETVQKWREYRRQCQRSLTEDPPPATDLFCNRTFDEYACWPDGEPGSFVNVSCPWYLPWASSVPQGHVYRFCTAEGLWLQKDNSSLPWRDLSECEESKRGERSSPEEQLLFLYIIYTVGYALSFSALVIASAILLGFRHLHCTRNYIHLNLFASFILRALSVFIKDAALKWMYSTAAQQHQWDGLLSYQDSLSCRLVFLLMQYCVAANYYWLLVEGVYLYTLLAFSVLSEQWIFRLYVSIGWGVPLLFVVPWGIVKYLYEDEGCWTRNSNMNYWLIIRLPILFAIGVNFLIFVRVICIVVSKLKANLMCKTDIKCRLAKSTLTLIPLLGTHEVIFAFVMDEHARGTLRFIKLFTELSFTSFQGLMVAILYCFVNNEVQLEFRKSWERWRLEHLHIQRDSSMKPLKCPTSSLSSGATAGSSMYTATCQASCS
Summary of the method: (§1)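 Readings of the HTRF 665/620 nm ratio, which falls as cAMP rises, were converted to nM cAMP using a standard curve after 30 min peptide exposure at 37° C.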

hGCGR = biological target: T2, hGCGR (Homo sapiens, UniProt P47871); test: Functional cAMP formation (HTRF) in HEK-293 clonal cells expressing hGCGR, 0.1% bovine casein, without or with 1.0% human serum albumin; format: cell-based; settings: 37° C., geometric mean, read-out: hGCGR EC50, nM (SEM, n)
T2 construct: expressed in transfected cells
T2 sequence (P47871 26-477): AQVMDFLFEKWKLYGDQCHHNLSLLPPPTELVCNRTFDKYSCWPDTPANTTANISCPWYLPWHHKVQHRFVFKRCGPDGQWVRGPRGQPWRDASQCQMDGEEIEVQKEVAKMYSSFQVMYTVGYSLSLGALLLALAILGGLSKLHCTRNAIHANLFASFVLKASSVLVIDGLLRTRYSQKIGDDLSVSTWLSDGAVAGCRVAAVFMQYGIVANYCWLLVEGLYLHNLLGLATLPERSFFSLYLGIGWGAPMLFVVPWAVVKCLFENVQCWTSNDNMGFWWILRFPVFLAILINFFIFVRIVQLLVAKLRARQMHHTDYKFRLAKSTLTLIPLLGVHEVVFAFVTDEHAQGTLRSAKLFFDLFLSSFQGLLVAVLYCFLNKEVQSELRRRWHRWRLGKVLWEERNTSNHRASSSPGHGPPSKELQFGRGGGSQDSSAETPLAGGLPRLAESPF
Summary of the method: as §1

[2] = biological target: T3, human GLP-1 receptor (hGLP-1R) (Homo sapiens, UniProt P43220); test: [125I]-GLP-1 binding, SPA with membranes of HEK293 cells expressing hGLP-1R; settings: human GLP-1R; geometric mean (SEM, n); read-out: Binding Affinity Ki, nM (SEM, n) hGLP-1R
T3 construct: expressed in transfected cells; crude membranes
T3 sequence (P43220 24-463): as the sequence (P43220 24-463) above

hGIPR = biological target: T4, hGIPR (Homo sapiens, UniProt P48546); test: Functional cAMP formation (HTRF) in HEK-293 clonal cells expressing hGIPR, 0.1% bovine casein, without or with 1.0% human serum albumin; format: cell-based; settings: 37° C.; for Emax: percent of maximal response to GIP(1-42)NH2, read-out: hGIPR Emax, % ± SEM; for EC50: geometric mean, read-out: hGIPR EC50, nM (SEM, n)
T4 construct: expressed in transfected cells
T4 sequence (P48546 22-466): T1 sequence (P48546 22-466)
Summary of the method: as §1

[3] = 0.1% bovine casein and 1.0% human serum albumin
[4] = cAMP, 0.1% bovine casein (no human serum albumin)
[5] = HEK293, 0.1% bovine casein and 1.0% human serum albumin
[6] = HEK293, cAMP, 0.1% bovine casein, arithmetic mean

| Structure (SMILES) | Ki [1] | EC50 (hGLP-1R) | EC50 (hGCGR; [3]) | EC50 (hGCGR; [4]) | Ki [2] | Emax (hGIPR; [5]) | Emax (hGIPR; [6]) | EC50 (hGIPR; [4]) | Emax (hGLP-1R; HEK293, 0.1% bovine casein and 1.0% human serum albumin, percent of maximal response to GLP-1(7-36)NH2, read-out: hGLP-1R Emax, % ± SEM) | EC50 (hGIPR; [3]) |
| --- | --- | --- | --- | --- | --- | --- | --- | --- | --- | --- |
| CCCCCCCCCCCC(=O)N[C@@H](CCC(=O)NCCOCCOCC(=O)NCCOCCOCC(=O)NCCCC[C@H](NC(=O)[C@H](CCCN)NC(=O)[C@H](CC(=O)O)NC(=O)[C@H](CC(C)C)NC(=O)[C@](C)(CC(C)C)NC(=O)[C@@H](NC(=O)[C@H](CO)NC(=O)[C@H](Cc1ccncc1)NC(=O)[C@H](CC(=O)O)NC(=O)[C@H](CO)NC(=O)[C@@H](NC(=O)[C@](C)(Cc1ccccc1F)NC(=O)[C@@H](NC(=O)CNC(=O)[C@H](CCC(=O)O)NC(=O)C(C)(C)NC(=O)[C@@H](N)Cc1ccc(O)cc1)[C@@H](C)O)[C@@H](C)O)[C@@H](C)CC)C(=O)N[C@@H](C)C(=O)N[C@@H](CCC(N)=O)C(=O)NC(C)(C)C(=O)N[C@@H](CCCCNC(=O)COCCOCCNC(=O)COCCOCCNC(=O)CC[C@H](NC(=O)CCCCCCCCCCC)C(=O)O)C(=O)N[C@@H](Cc1ccccc1)C(=O)N[C@H](C(=O)N[C@H](CCC(=O)O)C(=O)N[C@@](C)(Cc1ccc(O)cc1)C(=O)N[C@@H](CC(C)C)C(=O)N[C@H](C(=O)N[C@@H](CCCN)C(=O)NCC(=O)NCC(=O)N1CCC[C@H]1C(=O)N[C@@H](CO)C(=O)N[C@@H](CO)C(=O)NCC(=O)N[C@@H](C)C(=O)N1CCC[C@H]1C(=O)N1CCC[C@H]1C(=O)N1CCC[C@H]1C(=O)N[C@@H](CO)C(N)=O)[C@@H](C)CC)[C@@H](C)CC)C(=O)O [Example 298] | 0.0131 nM | 0.19 nM | > 9950 nM | > 9950 nM | 0.119 nM | 95% | 97.4% | 0.0107 nM | – | – |
| CCCCCCCCCCCC(=O)N[C@@H](CCC(=O)NCCOCCOCC(=O)NCCOCCOCC(=O)NCCCC[C@H](NC(=O)[C@H](CO)NC(=O)[C@@H]1CCCN1C(=O)[C@@H]1CCCN1C(=O)[C@@H]1CCCN1C(=O)[C@H](C)NC(=O)CNC(=O)[C@H](CO)NC(=O)[C@H](CO)NC(=O)[C@@H]1CCCN1C(=O)CNC(=O)CNC(=O)[C@H](CCC(=O)O)NC(=O)[C@@H](NC(=O)[C@H](CC(C)C)NC(=O)[C@](C)(Cc1ccc(O)cc1)NC(=O)[C@@H](CCC(=O)O)NC(=O)[C@@H](NC(=O)[C@H](Cc1ccccc1)NC(=O)[C@H](CCC(=O)O)NC(=O)C(C)(C)NC(=O)[C@H](CCC(N)=O)NC(=O)[C@H](C)NC(=O)[C@H](CCCCNC(=O)COCCOCCNC(=O)COCCOCCNC(=O)CC[C@H](NC(=O)CCCCCCCCCCC)C(=O)O)NC(=O)[C@H](CCCN)NC(=O)[C@H](CC(=O)O)NC(=O)[C@H](CC(C)C)NC(=O)[C@](C)(CC(C)C)NC(=O)[C@@H](NC(=O)C(C)(C)NC(=O)[C@H](Cc1ccc(O)cc1)NC(=O)[C@H](CC(=O)O)NC(=O)[C@H](CO)NC(=O)[C@@H](NC(=O)[C@](C)(Cc1ccccc1F)NC(=O)[C@@H](NC(=O)CNC(=O)[C@H](CCC(=O)O)NC(=O)C(C)(C)NC(=O)[C@@H](N)Cc1ccc(O)cc1)[C@@H](C)O)[C@@H](C)O)[C@@H](C)CC)[C@@H](C)CC)[C@@H](C)CC)C(N)=O)C(=O)O [Example 302] | 0.0228 nM | 0.0917 nM | > 9950 nM | > 9950 nM | 0.137 nM | 86.3% | 100% | 0.00916 nM | 99.4% | 0.453 nM |
